Measurements taken from patent US6903132B2, “Non-peptide GnRH agents, pharmaceutical compositions and methods for their use” (Agouron Pharmaceuticals, Inc., priority 2002, dated 2005).

Columns and labels:
Test in all cases: Radioligand binding assay: inhibition of binding of 125I-GnRH-A to GnRH receptors (membranes)
human GnRH receptors = target: T1, human GnRH receptors (Homo sapiens, UniProt P30968); settings: Human GnRH receptor; competition with 125I-GnRH-A; Ki calculated from IC50 (Cheng et al.)
T1 construct: expressed in transfected cells; host or cells: HEK 293
T1 sequence (P30968 1-328): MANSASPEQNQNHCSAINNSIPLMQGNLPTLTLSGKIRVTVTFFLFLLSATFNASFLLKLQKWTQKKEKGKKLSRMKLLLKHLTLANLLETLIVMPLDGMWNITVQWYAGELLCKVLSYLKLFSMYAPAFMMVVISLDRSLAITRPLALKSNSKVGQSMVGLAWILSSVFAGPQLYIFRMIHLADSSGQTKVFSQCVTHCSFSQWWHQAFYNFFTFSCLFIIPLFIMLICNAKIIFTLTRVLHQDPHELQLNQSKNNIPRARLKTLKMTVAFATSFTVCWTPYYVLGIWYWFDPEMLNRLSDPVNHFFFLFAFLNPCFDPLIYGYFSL
Method: (§1) HEK 293 cells stably transfected with mouse or human GnRH receptors as described above are grown in Dulbecco's high-glucose, modified Eagle's medium (DMEM) supplemented with 0.2% G418, 10% fetal bovine serum (FBS) and 100U/mL penicillin/streptomycin. GH3 cells stably transfected with the rat GnRH receptor (GGH3) were provided by Dr. William Chin (Harvard Medical School, Boston, Mass.). These cells are extensively characterized previously (Kaiser et al., 1997). The cells are grown in low glucose DMEM containing: 100U/mL penicillin/streptomycin, 0.6% G418 and 10% heat-inactivated FBS.
(§2) HEK 293 cells containing mouse or human receptors, or rat pituitaries (Pel Freez Biologicals, Rogers, Ark.) are homogenized in buffer A containing: 50 mM Tris (pH 7.4), 0.32 M sucrose, 2 mM EGTA, 1 mM PMSF, 5 μg/ml aprotinen, 5 μg/ml Pepstatin A, and 1 μg/ml leupeptin. Homogenized cells are centrifuged at 4° C. at 20,000×g for 25 minutes, re-suspended in buffer A and re-centrifuged at 4° C. at 20,000×g for an additional 25 minutes. Total membrane protein was determined with a BCA kit (Pierce, Rockford, Ill.). Membranes are stored at −70° C. at a final membrane protein concentration of approximately 5 mg/ml.
(§3) The radioiodinated agonist analog of GnRH, [des-Gly^10, D-Ala^6]GnRH ethylamide (^125I-GnRH-A), is used as the radioligand. One μg of GnRH-A diluted in 0.5 M phosphate buffer (pH 7.4) is added to an lodogen®-coated borosilicate glass tube (Pierce, Rockford, Ill.) containing 35 μl of 0.05 M phosphate buffer (pH 7.4-7.6) and 1 mCi of Na[^125I]. The reaction mixture is vortexed and incubated for 1 minute at room temperature. After one minute, the mixture is vortexed and allowed to incubate for an additional minute. 2 ml of 0.5 M acetic acid/1% BSA is added to the reaction tube and the mixture is added to a C18 Sep-Pak cartridge. The cartridge is washed with subsequent washes of 5 ml H2O and 5 ml 0.5 M acetic acid and then eluted with 5×1 ml of 60%CH3CN/40% 0.5 M acetic acid. The eluate is diluted with 3× volume of HPLC buffer A (0.1% TFA in H2O) and loaded onto a C18 column. The iodinated product is eluted over 20-25 min with a gradient of 25-100% CH3CN containing 0.1% TFA. The radioactive fractions (750 μl/fraction) are collected into clean polypropylene tubes containing 100 μl of 10% BSA. Fractions are assessed for biological activity by radiolig and binding. Specific activity of the radioligand was approximately 2200 Ci/mmol.
(§4) Membranes are diluted to 0.01-0.5 mg/ml (depending upon the species of receptor) with assay buffer containing 50 mM HEPES (pH 7.4), 1 mM EDTA, 2.5 mM MgCl2, and 0.1% BSA. Membranes (diluted to utilize similar receptor numbers between assays) are incubated with approximately 0.04-0.06 nM ^125I-GnRH-A in the presence or absence of competing agents (0.1-10,000 nM) in a total volume of 200 μl in 96-well polypropylene plates for 1 hour at room temperature. Assays are stopped by rapid filtration onto 96-well GF/C filters soaked in 0.1% polyethylenimine (PEI) utilizing a Packard 96-well cell harvester. Filters are washed three times with ice-cold PBS (50 mM NaPO4, 0.9% NaCl, 2 mM MgCl2, and 0.02% NaN3, pH 7.4). 35 μl of scintillation cocktail is added to each filter well and filters are counted on a Packard Topcount. Control dose-response curves are generated to GnRH (0.1 nM-100 nM) in each competition binding experiment. Ki values were calculated from IC50 values according to Cheng et al., Biochemical Pharmacol. 22: 3099-3108, 1973. [formula]

mouse GnRH receptors = target: T2, mouse GnRH receptors (Mus musculus, UniProt Q01776); settings: Mouse GnRH receptor; competition with 125I-GnRH-A; Ki calculated from IC50 (Cheng et al.)
T2 construct: expressed in transfected cells; host or cells: HEK 293
T2 sequence (Q01776 1-327): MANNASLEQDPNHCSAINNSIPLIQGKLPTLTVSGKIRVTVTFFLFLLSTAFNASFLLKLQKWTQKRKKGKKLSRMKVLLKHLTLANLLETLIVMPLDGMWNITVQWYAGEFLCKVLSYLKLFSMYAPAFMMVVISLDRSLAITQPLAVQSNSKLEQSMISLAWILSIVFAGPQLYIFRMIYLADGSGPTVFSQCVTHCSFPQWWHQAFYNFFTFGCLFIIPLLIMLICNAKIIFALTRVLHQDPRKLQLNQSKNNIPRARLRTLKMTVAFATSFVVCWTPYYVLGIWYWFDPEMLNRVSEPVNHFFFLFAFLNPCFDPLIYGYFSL
Method: as §1, §2, §3, §4

rat GnRH receptor = target: T3, rat GnRH receptor (Rattus norvegicus, UniProt P30969); settings: competition with 125I-GnRH-A, Ki calculated from IC50 (Cheng et al.)
T3 construct: rat pituitaries (Pel Freez Biologicals, Rogers, Ark.) are homogenized in buffer A; tissue Pel Freez Biologicals; host or cells: rat pituitaries
T3 sequence (P30969 1-327): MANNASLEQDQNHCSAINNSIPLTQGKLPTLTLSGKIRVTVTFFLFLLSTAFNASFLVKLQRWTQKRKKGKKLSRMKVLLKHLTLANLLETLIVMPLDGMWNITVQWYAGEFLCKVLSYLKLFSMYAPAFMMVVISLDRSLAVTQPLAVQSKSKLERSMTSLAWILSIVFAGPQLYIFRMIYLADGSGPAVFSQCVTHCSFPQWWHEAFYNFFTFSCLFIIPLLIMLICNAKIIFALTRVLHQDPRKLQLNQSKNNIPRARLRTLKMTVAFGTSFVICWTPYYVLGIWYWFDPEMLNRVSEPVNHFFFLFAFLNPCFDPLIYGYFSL
Method: as §1, §2, §3, §4

SMILES | Ki (human GnRH receptors) [nM] | Ki (mouse GnRH receptors) [nM] | Ki (rat GnRH receptor) [nM]
Cc1ccc(C(C)(C)C)cc1Cc1ccc(C(=O)NNc2ccc3ccccc3n2)o1 [Example B3, 5-[5-(tert-butyl)-2-methylbenzyl]-N′-(2-quinolinyl)-2-furohydrazide] | 95 | 84 | 65
Cc1cc(NNC(=O)c2ccc(Cc3cc4c(cc3Cl)C(C)(C)CCC4(C)C)o2)nc2c1c(C)nn2C [Example C4, 5-[(3-chloro-5,5,8,8-tetramethyl-5,6,7,8-tetrahydro-2-naphthalenyl)methyl]-N′-(1,3,4-trimethyl-1H-pyrazolo[3,4-b]pyridin-6-yl)-2-furohydrazide] | 1.3 | 8.2 | 22
Cc1cc2c(cc1Cc1ccc(C(=O)NNc3ncccc3C(F)(F)F)o1)C(C)(C)CCC2(C)C [Example C11, 5-[(3,5,5,8,8-Pentamethyl-5,6,7,8-tetrahydro-2-naphthalenyl)methyl]-N′-[3-(trifluoromethyl)-2-pyridinyl]-2-furohydrazide] | 63 | 67 | 84
Cc1cc2c(cc1Cc1ccc(C(=O)NNc3ncc(C(F)(F)F)cc3Cl)o1)C(C)(C)CCC2(C)C [Example C12, N′-[3-Chloro-5-(trifluoromethyl)-2-pyridinyl]-5-[(3,5,5,8,8-pentamethyl-5,6,7,8-tetrahydro-2-naphthalenyl)methyl]-2-furohydrazide] | 46 | 33 | 39
Cc1cc(C(F)(F)F)cc(NNC(=O)c2ccc(Cc3cc4c(cc3C)C(C)(C)CCC4(C)C)o2)n1 [Example C13, N′-[6-methyl-4-(trifluoromethyl)-2-pyridinyl]-5-[(3,5,5,8,8-pentamethyl-5,6,7,8-tetrahydro-2-naphthalenyl)methyl]-2-furohydrazide] | 220 | 130 | 240
Cc1cc2c(cc1Oc1oc(C(=O)NNc3cc(C)c4c(C)nn(C)c4n3)cc1Br)C(C)(C)CCC2(C)C [Example F3, 4-Bromo-5-[(3,5,5,8,8-pentamethyl-5,6,7,8-tetrahydro-2-naphthalenyl)oxy]-N′-[1,3,4-trimethyl-1H-pyrazolo[3,4-b]pyridin-6-yl)-2-furohydrazide] | 80 | 136 | 535
Cc1cc(NNC(=O)c2ccc(Oc3ccc4c(c3)C(C)(C)CCC4(C)C)o2)nc2c1c(C)nn2C [Example F4, 5-[(5,5,8,8-tetramethyl-5,6,7,8-tetrahydro-2-naphthalenyl)oxy]-N′-(1,3,4-trimethyl-1H-pyrazolo[3,4-b]pyridin-6-yl)-2-furohydrazide] | 126 | 450 | 384

More lines, now with the values ahead:

Ki (human GnRH receptors) [nM] | Ki (mouse GnRH receptors) [nM] | Ki (rat GnRH receptor) [nM] | SMILES
2.4 | 3.6 | 4.2 | Cc1cc2c(cc1Oc1ccc(C(=O)NNc3cc(C)c4c(C)nn(C)c4n3)o1)C(C(C)C)C(C)C2(C)C (stereo not drawn) [Example I2, 5-(3-lsopropyl-1,1,2,6-tetramethyl-indan-5-yloxy)-furan-2-carboxylic acid N′-(1,3,4-trimethyl-1H-pyrazolo[3,4-b]pyridin-6-yl)-hydrazide]
50 | 61 | 79 | Cc1cc(NNC(=O)c2ccc(Oc3cc(C(C)(C)C)ccc3Br)o2)nc2c1c(C)nn2C [Example I6, 5-(2-Bromo-5-tert-butyl-phenoxy)-furan-2-carboxylic acid N′-(1,3,4-trimethyl-1H-pyrazolo[3,4-b]pyridin-6-yl)-hydrazide]
10 |  | 52 | Cc1cc2c(c(Br)c1Oc1ccc(C(=O)NNc3cc(C)c4c(C)nn(C)c4n3)o1)C(C)(C)CC2 [Example I22, 5-(4-Bromo-3,3,6-trimethyl-indan-5-yloxy)-furan-2-carboxylic acid N′-(1,3,4-trimethyl-1H-pyrazolo[3,4-b]pyridin-6-yl)-hydrazide]
1.6 |  | 17 | Cc1cc2c(cc1Cc1ccc(C(=O)NNc3cc(C)c4c(C)nn(C)c4n3)o1)C(C)(C)CCC2 [Example J26, 5-(3,8,8-Trimethyl-5,6,7,8-tetrahydro-naphthalen-2-ylmethyl)-furan-2-carboxylic acid N′-(1,3,4-trimethyl-1H-pyrazolo[3,4-b]pyridin-6-yl)-hydrazide]
23 |  | 11 | Cc1cc2c(cc1Oc1ccc(C(=O)NNc3ncc(C(F)(F)F)cc3Cl)o1)C(C)(C)C(C)C2(C)C (stereo not drawn) [Example M1, 5-(1,1,2,3,3,6-Hexamethyl-indan-5-yloxy)-furan-2-carboxylic acid N′-(chloro-trifluoromethyl-pyridin-2-yl)-hydrazide]
19 |  | 29 | Cc1cc2c(cc1Oc1ccc(C(=O)NNc3ccc(C(F)(F)F)cn3)o1)C(C)(C)C(C)C2(C)C (stereo not drawn) [Example M2, 5-(1,1,2,3,3,6-Hexamethyl-indan-5-yloxy)-furan-2-carboxylic acid N′-(5-trifluoromethyl-pyridin-2-yl)-hydrazide]
4.1 |  | 2.9 | Cc1cc2c(cc1Oc1ccc(C(=O)NNc3ccc4ccccc4n3)o1)C(C)(C)C(C)C2(C)C (stereo not drawn) [Example M3, 5-(1,1,2,3,3,6-Hexamethyl-indan-5-yloxy)-furan-2-carboxylic acid N′-quinolin-2-yl-hydrazide]
130 |  | 100 | Cc1cc2c(cc1Oc1ccc(C(=O)NNc3ccc4ccccc4n3)o1)C(C)(C)OC2 [Example N3, 5-(3,3,6-Trimethyl-1,3-dihydro-isobenzofuran-5-yloxy)-furan-2-carboxylic acid N′-quinolin-2-yl-hydrazide]
